{"source": "patent US10945989B2", "about": "“Perinatal treatment with a flavonoid agonist of the TrkB receptor for BDNF rescues neurogenesis and behavior in the Ts65Dn mouse model of DS” (ALMA MATER STUDIORUM—Universita' di Bologna, priority 2017, dated 2021)", "type_in_all_cases": "in vivo, mouse", "key": {"[1]": {"system": "dendritic spines of granule neurons", "experiment": "Golgi staining: dendritic spine density of granule cells", "settings": "5.0 mg/kg P3-P15", "description": "Euploid and Ts65Dn mice received a daily subcutaneous injection (at 9-10 am) of 7,8-DHF (5.0 mg/kg in vehicle: PBS with 1% DMSO) or vehicle from postnatal day 3 (P3) to postnatal day 15. This timing was chosen because it corresponds to that previously used to test the effects of fluoxetine and other pharmacotherapies in the neonate Ts65Dn mouse (Bianchi et al., 2010b; Giacomini et al., 2015; Stagni et al., 2016). Mice that received 7,8-DHF will be called “treated mice” (treated euploid mice: n=25; treated Ts65Dn mice: n=15). Mice that received the vehicle will be called “untreated mice” (untreated euploid mice: n=35; untreated Ts65Dn mice: n=21). […] The brains were excised and cut along the midline. […]\nIn Golgi-stained sections from the DG of P15 mice, spines of granule cells were counted using a 100× oil immersion objective lens (1.4 NA). […] For each neuron, 2-3 segments were analyzed in the outer and inner half of the molecular layer, respectively. For each animal, spines were counted in at least 8 neurons. The length of each sampled dendritic segment was determined by tracing its profile and the number of spines was counted manually. The linear spine density was calculated by dividing the total number of spines by the length of the dendritic segment. Spine density was expressed as number of spines per 100 μm dendrite."}, "[2]": {"experiment": "Body and brain weight, neonatal treatment (P15, P45)", "description": "Euploid and Ts65Dn mice received a daily subcutaneous injection (at 9-10 am) of 7,8-DHF (5.0 mg/kg in vehicle: PBS with 1% DMSO) or vehicle from postnatal day 3 (P3) to postnatal day 15. This timing was chosen because it corresponds to that previously used to test the effects of fluoxetine and other pharmacotherapies in the neonate Ts65Dn mouse (Bianchi et al., 2010b; Giacomini et al., 2015; Stagni et al., 2016). Mice that received 7,8-DHF will be called “treated mice” (treated euploid mice: n=25; treated Ts65Dn mice: n=15). Mice that received the vehicle will be called “untreated mice” (untreated euploid mice: n=35; untreated Ts65Dn mice: n=21). […] The brains were excised and cut along the midline. The left hemisphere of a group of mice was fixed by immersion in PFA 4% and frozen, and the left hemisphere of another group of mice was used for Golgi staining. The right hemispheres of all mice was kept at −80° C. and used for western blotting.\n(§1) Euploid and Ts65Dn mice received a daily subcutaneous injection (at 9-10 am) of 7,8-DHF (5.0 mg/kg in vehicle) or vehicle from postnatal day 3 (P3) to postnatal day P45-P50. […] These mice will be called here P45 mice. Mice were behaviorally tested in the 6 days that preceded the day of sacrifice (FIG. 2B).\nThe body weight of mice of all groups was recorded prior to sacrifice and the brain weight was recorded immediately after brain removal. The number of animals used for each experimental procedure is specified in the figure legends and in Table 3."}, "BDNF": {"system": "BDNF", "experiment": "Western blot of hippocampal homogenates: BDNF", "description": "Euploid and Ts65Dn mice received a daily subcutaneous injection (at 9-10 am) of 7,8-DHF (5.0 mg/kg in vehicle: PBS with 1% DMSO) or vehicle from postnatal day 3 (P3) to postnatal day 15. This timing was chosen because it corresponds to that previously used to test the effects of fluoxetine and other pharmacotherapies in the neonate Ts65Dn mouse (Bianchi et al., 2010b; Giacomini et al., 2015; Stagni et al., 2016). Mice that received 7,8-DHF will be called “treated mice” (treated euploid mice: n=25; treated Ts65Dn mice: n=15). Mice that received the vehicle will be called “untreated mice” (untreated euploid mice: n=35; untreated Ts65Dn mice: n=21). […] The brains were excised and cut along the midline. The left hemisphere of a group of mice was fixed by immersion in PFA 4% and frozen, and the left hemisphere of another group of mice was used for Golgi staining. […]\nIn homogenates of the hippocampal formation of P15 mice, total proteins were obtained as previously described (Trazzi et al., 2011) and the levels of the following proteins were evaluated: BDNF, TrkB full length (TrkB-FL), phosphorylated TrkB (p-TrkB), the truncated form 1 of the TrkB receptor (TrkB-T1), phosphorylated ERK1 (p-ERK1), phosphorylated ERK2 (p-ERK2), ERK1, ERK2, synaptophysin (SYN), GAPDH and α-Tubulin using the antibodies reported in Table 1. […]"}, "Ts65Dn and euploid mice": {"system": "Ts65Dn and euploid mice", "experiment": "Morris Water Maze, learning phase", "description": "as §1\nMice were trained in the MWM task to locate a hidden escape platform in a circular pool, using a previously used protocol (Stagni et al., 2016), that was altogether based on a published protocol (Vorhees and Williams, 2006). The apparatus consisted of a large circular water tank (1.00 m diameter, 50 cm height) with a transparent round escape platform (10 cm^2). The pool was virtually divided into four equal quadrants identified as northeast, northwest, southeast, and southwest. The tank was filled with tap water at a temperature of 22±1.0° C. Mice are more prone to undergo hypothermia than rats and in the MWM hypothermia may cause a reduction in swimming speed (livonen et al., 2003). […] This is consistent with evidence that a temperature of 22° C. is “high enough” to reduce stress and potential hypothermia and “low enough” to maintain the animals' motivation to escape the pool (Costa et al., 2010). The tank was filled with water up to 0.5 cm above the top of the platform and the water was made opaque with milk. The platform was placed in the tank in a fixed position (in the middle of the south-west quadrant). The pool was placed in a large room with various intra (squares, triangles, circles and stars) and extra-maze visual cues. Each mouse was tested in one session of 4 trial on the first day and in two sessions of 4 trials in the following 4 days with an inter-session interval of 45 min. A video camera was placed above the center of the pool and connected to a videotracking system (Ethovision 3.1; Noldus Information Technology B.V., Wageningen, Netherlands). Mice were released facing the wall of the pool from one of the following starting points: North, East, South, or West and allowed to search for up to 60 s for the platform. […] During the inter-trail time (10 s) mice were placed in an empty cage. For the learning phase, we evaluated the latency to find the hidden platform, time in periphery, percentage of time in periphery, path length, proximity to the platform, and swimming speed. Retention was assessed with one trial (probe trial), on the sixth day, 24 h after the last acquisition trial, using the same starting point for all mice. Mice were allowed to search for up to 60 s for the platform. For the probe trial, the latency of the first entrance in the former platform zone, the frequency of entrances in the former quadrant, the proximity to the former platform position (Gallagher's test), the percentage of time spent at the periphery (thigmotaxis), the swimming speed and the percentage of time spent in each quadrant were employed as measures of retention of acquired spatial preference. All experimental sessions were carried out between 9.00 am and […]. The following number of mice were tested. Untreated euploid mice: n=19; untreated Ts65Dn mice: n=14; 7,8-DHF-treated euploid mice: n=17; 7,8-DHF-treated Ts65Dn mice: n=16. Three untreated euploid mice (yielding n=16), one 7,8-DHF-treated euploid mouse (yielding n=16) and one 7,8-DHF-treated Ts65Dn mouse (yielding n=15) were excluded from MWM analysis due to thigmotaxis for a whole recording session."}, "[3]": {"settings": "P15 Ts65Dn mice, 5.0 mg/kg s.c. daily P3-P15"}, "[4]": {"settings": "P45 Ts65Dn mice, 5.0 mg/kg s.c. daily P3-P45"}}}
{"smiles": "O=c1cc(-c2ccccc2)oc2c(O)c(O)ccc12", "note": "[7,8-DHF, 7,8-dihydroxyflavone]", "values": [{"measurement": "spine density of granule neurons", "setting": "[1]; P15 Ts65Dn mice", "result": "became similar to that of euploid mice"}, {"measurement": "spine density of granule neurons", "setting": "[1]; P15 euploid mice", "result": "no effect on spine density"}, {"measurement": "body weight", "setting": "[2]; [3]", "result": "did not further reduce the body weight"}, {"measurement": "brain weight", "setting": "[2]; [3]", "result": "did not cause a further brain weight reduction"}, {"measurement": "brain weight", "setting": "[2]; P15 euploid mice, 5.0 mg/kg s.c. daily P3-P15, vs untreated", "result": "slight but significant brain weight reduction"}, {"measurement": "body weight", "setting": "[2]; [4]", "result": "did not further reduce their body weight"}, {"measurement": "brain weight (reduction vs untreated euploid mice)", "setting": "[2]; [4]", "result": "this difference disappeared"}, {"measurement": "body weight", "setting": "[2]; P45 euploid mice, 5.0 mg/kg s.c. daily P3-P45, vs untreated", "result": "body weight reduction"}, {"measurement": "BDNF levels in the hippocampus", "setting": "BDNF; P15 Ts65Dn mice, statistically significant", "result": "reduction in BDNF levels"}, {"measurement": "BDNF levels in the hippocampus", "setting": "BDNF; P15 euploid mice, not statistically significant", "result": "reduction in BDNF levels"}, {"measurement": "time spent at the periphery (thigmotaxis)", "setting": "Ts65Dn and euploid mice; Ts65Dn mice", "result": "spent a similar time as euploid mice"}, {"measurement": "escape latency (learning phase)", "setting": "Ts65Dn and euploid mice; Ts65Dn mice, 5.0 mg/kg P3-P45-50, save for day 3", "result": "not statistically different from that of untreated euploid mice"}, {"measurement": "path length", "setting": "Ts65Dn and euploid mice; Ts65Dn mice, day 5", "result": "shorter in comparison with their untreated counterparts"}, {"measurement": "proximity (distance from the platform)", "setting": "Ts65Dn and euploid mice; Ts65Dn mice, day 5", "result": "significantly reduced in comparison with their untreated counterparts"}, {"measurement": "percentage of time spent at the periphery", "setting": "Ts65Dn and euploid mice; Ts65Dn mice, significant vs untreated counterparts on day 5", "result": "underwent a reduction"}, {"measurement": "time spent at the periphery (thigmotaxis)", "setting": "Ts65Dn and euploid mice; euploid mice", "result": "reduction in thigmotaxis"}, {"measurement": "escape latency (learning phase)", "setting": "Ts65Dn and euploid mice; euploid mice, vs untreated, significant on day 2 only", "result": "latency was reduced"}]}
